Source: the NIST ThermoML archive (doi:10.1016/j.jct.2014.06.004)
Numbers after ± are expanded uncertainties.

Legend:
[1] = 100 kPa, Liquid; for speed of sound: Frequency=3 MHz, Sing-around technique in a fixed-path interferometer; for mass density: Vibrating tube method
[2] = refractive index (Na D-line) (dimensionless); conditions: 101.33 kPa, Liquid, Standard Abbe refractometry
[3] = refractive index (Na D-line) (dimensionless); xn = mol fraction of the nth substance listed; conditions: 100 kPa, Liquid, Standard Abbe refractometry
[4] = xn = mol fraction of the nth substance listed; conditions: 100 kPa, Liquid; for speed of sound: Frequency=3 MHz, Sing-around technique in a fixed-path interferometer; for mass density: Vibrating tube method

CCO [ethanol]
298.15 K
Conditions	mass density [kg/m3]	refractive index	speed of sound [m/s]
[1]	785.2 ± 0.3	–	1142 ± 2
[2]	–	1.3594 ± 0.0005	–

CCOC(=O)OCC [diethyl carbonate]
298.15 K
Conditions	mass density [kg/m3]	refractive index	speed of sound [m/s]
[1]	969.3 ± 0.3	–	1177 ± 2
[2]	–	1.3825 ± 0.0005	–

CCOC(=O)OCC [diethyl carbonate] + CCO
298.15 K
Conditions	mass density, [4] [kg/m3]	refractive index, [3]	speed of sound, [4] [m/s]
x1 = 0.0415	800.3 ± 0.5	1.3614 ± 0.0005	1145 ± 2
x1 = 0.0943	817.7 ± 0.4	1.3635 ± 0.0005	1147 ± 2
x1 = 0.1932	845.9 ± 0.4	1.367 ± 0.0005	1150 ± 2
x1 = 0.2929	869.6 ± 0.4	1.3698 ± 0.0005	1154 ± 2
x1 = 0.3938	890 ± 0.4	1.3724 ± 0.0005	1156 ± 2
x1 = 0.4965	907.8 ± 0.3	1.3746 ± 0.0005	1159 ± 2
x1 = 0.597	923 ± 0.3	1.3765 ± 0.0005	1162 ± 2
x1 = 0.6924	935.7 ± 0.3	1.3781 ± 0.0005	1166 ± 2
x1 = 0.7911	947.6 ± 0.3	1.3796 ± 0.0005	1169 ± 2
x1 = 0.899	959.3 ± 0.3	1.3811 ± 0.0005	1173 ± 2
x1 = 0.9413	963.6 ± 0.3	1.3817 ± 0.0005	1175 ± 2
x1 = 1	969.3 ± 0.3	1.3825 ± 0.0005	1177 ± 2

CCCCCCC(=O)O [heptanoic acid]
Conditions	mass density, [1] [kg/m3]	refractive index, [2]	speed of sound, [1] [m/s]
293.15 K	917.7 ± 0.3	1.4234 ± 0.0005	1295 ± 2
298.15 K	913.5 ± 0.3	1.4214 ± 0.0005	1278 ± 2
303.15 K	909.3 ± 0.3	1.4194 ± 0.0005	1260 ± 2
308.15 K	905.1 ± 0.3	1.4173 ± 0.0005	1242 ± 2
313.15 K	900.9 ± 0.3	1.4153 ± 0.0005	1225 ± 2

CCC(=O)O [propanoic acid] + CCCCCCC(=O)O
x2 = 0
Conditions	mass density, [4] [kg/m3]	refractive index, [3]	speed of sound, [4] [m/s]
293.15 K	993.9 ± 0.3	1.3865 ± 0.0005	1166 ± 2
298.15 K	988.5 ± 0.3	1.3848 ± 0.0005	1147 ± 2
303.15 K	983.1 ± 0.3	1.383 ± 0.0005	1128 ± 2
308.15 K	977.7 ± 0.3	1.3811 ± 0.0005	1109 ± 2
313.15 K	972.3 ± 0.3	1.3792 ± 0.0005	1090 ± 2

CCCC(=O)O [butanoic acid] + CCCCCCC(=O)O
x2 = 0
Conditions	mass density, [4] [kg/m3]	refractive index, [3]	speed of sound, [4] [m/s]
293.15 K	957.8 ± 0.3	1.3983 ± 0.0005	1196 ± 2
298.15 K	952.8 ± 0.3	1.3963 ± 0.0005	1177 ± 2
303.15 K	947.9 ± 0.3	1.3942 ± 0.0005	1158 ± 2
308.15 K	942.9 ± 0.3	1.3922 ± 0.0005	1139 ± 2
313.15 K	938.1 ± 0.3	1.3901 ± 0.0005	1121 ± 2

CCC(=O)O [propanoic acid]
Conditions	mass density, [1] [kg/m3]	refractive index, [2]	speed of sound, [1] [m/s]
293.15 K	993.9 ± 0.3	1.3865 ± 0.0005	1166 ± 2
298.15 K	988.5 ± 0.3	1.3848 ± 0.0005	1147 ± 2
303.15 K	983.1 ± 0.3	1.383 ± 0.0005	1128 ± 2
308.15 K	977.7 ± 0.3	1.3811 ± 0.0005	1109 ± 2
313.15 K	972.3 ± 0.3	1.3792 ± 0.0005	1090 ± 2

CCCC(=O)O [butanoic acid]
Conditions	mass density, [1] [kg/m3]	refractive index, [2]	speed of sound, [1] [m/s]
293.15 K	957.8 ± 0.3	1.3983 ± 0.0005	1196 ± 2
298.15 K	952.8 ± 0.3	1.3963 ± 0.0005	1177 ± 2
303.15 K	947.9 ± 0.3	1.3942 ± 0.0005	1158 ± 2
308.15 K	942.9 ± 0.3	1.3922 ± 0.0005	1139 ± 2
313.15 K	938.1 ± 0.3	1.3901 ± 0.0005	1121 ± 2

CCO [ethanol] + CCOC(=O)OCC
298.15 K, x2 = 0
Conditions	mass density [kg/m3]	refractive index	speed of sound [m/s]
[3]	–	1.3594 ± 0.0005	–
[4]	785.2 ± 0.3	–	1142 ± 2
